Source: the supplement of paper PMC13207355

Tests used:
Conditions in all cases: exposure time: 72 h
E13 [1] = patient-derived glioblastoma stem cells of classical subtype; test: surviving fraction (nuclei count normalised to DMSO); higher = more cells surviving (less toxic)
E21 [2] = patient-derived glioblastoma stem cells of mesenchymal subtype; test: as above
E28 [3] = patient-derived glioblastoma stem cells of classical subtype; test: as above
E31 [4] = patient-derived glioblastoma stem cells of proneural subtype; test: as above
E34 [5] = patient-derived glioblastoma stem cells of proneural subtype; test: as above
E57 [6] = patient-derived glioblastoma stem cells of mesenchymal subtype; test: as above
FT3469 [7] = normal neural stem cell line; test: as above
E13 [8] = test: phenotypic distance (Euclidean, principal components) from DMSO controls (arbitrary units); higher = stronger morphological change
E21 [9] = test: as above
E28 [10] = test: as above
E31 [11] = test: as above
E34 [12] = test: as above
E57 [13] = test: as above
FT3469 [14] = test: as above
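Throughout, for phenotypic distance (Euclidean, principal components) from DMSO controls: cell Painting imaging in 384-well plates, CellProfiler features reduced to at least 20 principal components, Euclidean distance versus same-plate DMSO vehicle wells (0.1% v/v), median over six images per well.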
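Throughout, for surviving fraction (nuclei count normalised to DMSO): nuclei counted by high-content imaging of Hoechst-stained cells in laminin-coated 384-well plates, relative to 0.1% DMSO vehicle wells, with staurosporine as cell-death control.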

CCCCCCCCCCCCCC(=O)O[C@@H]1[C@@H](C)[C@@]2(O)[C@@H](C=C(CO)C[C@]3(O)C(=O)C(C)=C[C@@H]23)[C@@H]2C(C)(C)[C@]12OC(C)=O [Phorbol 12-myristate 13-acetate]
Conditions	phenotypic distance	surviving fraction
E13 [1], 4.1 nM	–	0.681
E13 [1], 12.3 nM	–	0.64
E13 [1], 37 nM	–	0.728
E13 [1], 111.1 nM	–	0.596
E13 [1], 333.3 nM	–	0.708
E13 [1], 1000 nM	–	0.576
E13 [1], 3000 nM	–	0.47
E13 [8], 4.1 nM	2.62	–
E13 [8], 12.3 nM	2.5	–
E13 [8], 37 nM	2.61	–
E13 [8], 111.1 nM	2.82	–
E13 [8], 333.3 nM	1.86	–
E13 [8], 1000 nM	2.26	–
E13 [8], 3000 nM	2.58	–
E21 [2], 4.1 nM	–	0.677
E21 [2], 12.3 nM	–	0.88
E21 [2], 37 nM	–	0.786
E21 [2], 111.1 nM	–	0.68
E21 [2], 333.3 nM	–	0.75
E21 [2], 1000 nM	–	0.775
E21 [2], 3000 nM	–	0.0234
E21 [9], 4.1 nM	2.4	–
E21 [9], 12.3 nM	2.57	–
E21 [9], 37 nM	2.24	–
E21 [9], 111.1 nM	2.1	–
E21 [9], 333.3 nM	2.01	–
E21 [9], 1000 nM	1.76	–
E21 [9], 3000 nM	6.77	–
E28 [3], 4.1 nM	–	0.75
E28 [3], 12.3 nM	–	0.65
E28 [3], 37 nM	–	0.725
E28 [3], 111.1 nM	–	0.795
E28 [3], 333.3 nM	–	0.815
E28 [3], 1000 nM	–	0.668
E28 [3], 3000 nM	–	0.383
E28 [10], 4.1 nM	2.11	–
E28 [10], 12.3 nM	1.89	–
E28 [10], 37 nM	1.72	–
E28 [10], 111.1 nM	1.44	–
E28 [10], 333.3 nM	1.52	–
E28 [10], 1000 nM	1.21	–
E28 [10], 3000 nM	4.49	–
E31 [4], 4.1 nM	–	1.07
E31 [4], 12.3 nM	–	1.06
E31 [4], 37 nM	–	1.23
E31 [4], 111.1 nM	–	1.01
E31 [4], 333.3 nM	–	1.07
E31 [4], 1000 nM	–	0.994
E31 [4], 3000 nM	–	0.0149
E31 [11], 4.1 nM	3.22	–
E31 [11], 12.3 nM	3.36	–
E31 [11], 37 nM	2.74	–
E31 [11], 111.1 nM	1.67	–
E31 [11], 333.3 nM	1.98	–
E31 [11], 1000 nM	1.94	–
E31 [11], 3000 nM	6.13	–
E34 [5], 4.1 nM	–	0.524
E34 [5], 12.3 nM	–	0.516
E34 [5], 37 nM	–	0.618
E34 [5], 111.1 nM	–	0.488
E34 [5], 333.3 nM	–	0.688
E34 [5], 1000 nM	–	0.48
E34 [5], 3000 nM	–	0.478
E34 [12], 4.1 nM	4.26	–
E34 [12], 12.3 nM	4.21	–
E34 [12], 37 nM	3.53	–
E34 [12], 111.1 nM	3.9	–
E34 [12], 333.3 nM	2.78	–
E34 [12], 1000 nM	2.96	–
E34 [12], 3000 nM	4.34	–
E57 [6], 4.1 nM	–	0.331
E57 [6], 12.3 nM	–	0.32
E57 [6], 37 nM	–	0.374
E57 [6], 111.1 nM	–	0.233
E57 [6], 333.3 nM	–	0.369
E57 [6], 1000 nM	–	0.367
E57 [6], 3000 nM	–	0.108
E57 [13], 4.1 nM	7.04	–
E57 [13], 12.3 nM	6.41	–
E57 [13], 37 nM	5.79	–
E57 [13], 111.1 nM	8.21	–
E57 [13], 333.3 nM	6.38	–
E57 [13], 1000 nM	6.18	–
E57 [13], 3000 nM	11.1	–
FT3469 [7], 4.1 nM	–	0.75
FT3469 [7], 12.3 nM	–	0.728
FT3469 [7], 37 nM	–	0.729
FT3469 [7], 111.1 nM	–	0.701
FT3469 [7], 333.3 nM	–	0.832
FT3469 [7], 1000 nM	–	0.791
FT3469 [7], 3000 nM	–	0.571
FT3469 [14], 4.1 nM	3.13	–
FT3469 [14], 12.3 nM	2.56	–
FT3469 [14], 37 nM	3.38	–
FT3469 [14], 111.1 nM	2.45	–
FT3469 [14], 333.3 nM	1.86	–
FT3469 [14], 1000 nM	2.16	–
FT3469 [14], 3000 nM	4.11	–

O=C1CC[C@@H](C(=O)N2CSC[C@H]2C(=O)O)N1 [Pidotimod]
Conditions	phenotypic distance	surviving fraction
E13 [1], 4.1 nM	–	0.925
E13 [1], 12.3 nM	–	1.01
E13 [1], 37 nM	–	0.97
E13 [1], 111.1 nM	–	1
E13 [1], 333.3 nM	–	1.06
E13 [1], 1000 nM	–	1.01
E13 [1], 3000 nM	–	0.913
E13 [8], 4.1 nM	0.802	–
E13 [8], 12.3 nM	0.46	–
E13 [8], 37 nM	0.672	–
E13 [8], 111.1 nM	0.456	–
E13 [8], 333.3 nM	3.33	–
E13 [8], 1000 nM	0.449	–
E13 [8], 3000 nM	0.493	–
E21 [2], 4.1 nM	–	0.96
E21 [2], 12.3 nM	–	1
E21 [2], 37 nM	–	0.984
E21 [2], 111.1 nM	–	1.08
E21 [2], 333.3 nM	–	0.991
E21 [2], 1000 nM	–	0.96
E21 [2], 3000 nM	–	0.947
E21 [9], 4.1 nM	0.591	–
E21 [9], 12.3 nM	0.496	–
E21 [9], 37 nM	0.601	–
E21 [9], 111.1 nM	0.694	–
E21 [9], 333.3 nM	0.815	–
E21 [9], 1000 nM	0.785	–
E21 [9], 3000 nM	0.805	–
E28 [3], 4.1 nM	–	1.2
E28 [3], 12.3 nM	–	1.02
E28 [3], 37 nM	–	0.964
E28 [3], 111.1 nM	–	1.11
E28 [3], 333.3 nM	–	1.04
E28 [3], 1000 nM	–	1.16
E28 [3], 3000 nM	–	0.954
E28 [10], 4.1 nM	0.887	–
E28 [10], 12.3 nM	1.4	–
E28 [10], 37 nM	0.401	–
E28 [10], 111.1 nM	0.59	–
E28 [10], 333.3 nM	0.551	–
E28 [10], 1000 nM	0.647	–
E28 [10], 3000 nM	0.608	–
E31 [4], 4.1 nM	–	1.08
E31 [4], 12.3 nM	–	1.02
E31 [4], 37 nM	–	1.01
E31 [4], 111.1 nM	–	1.11
E31 [4], 333.3 nM	–	0.994
E31 [4], 1000 nM	–	1.17
E31 [4], 3000 nM	–	0.845
E31 [11], 4.1 nM	0.386	–
E31 [11], 12.3 nM	0.576	–
E31 [11], 37 nM	0.777	–
E31 [11], 111.1 nM	0.985	–
E31 [11], 333.3 nM	0.492	–
E31 [11], 1000 nM	0.921	–
E31 [11], 3000 nM	0.594	–
E34 [5], 4.1 nM	–	0.98
E34 [5], 12.3 nM	–	0.951
E34 [5], 37 nM	–	0.786
E34 [5], 111.1 nM	–	1.09
E34 [5], 333.3 nM	–	0.996
E34 [5], 1000 nM	–	1.04
E34 [5], 3000 nM	–	1.04
E34 [12], 4.1 nM	0.643	–
E34 [12], 12.3 nM	0.613	–
E34 [12], 37 nM	0.723	–
E34 [12], 111.1 nM	0.721	–
E34 [12], 333.3 nM	0.963	–
E34 [12], 1000 nM	0.89	–
E34 [12], 3000 nM	0.949	–
E57 [6], 4.1 nM	–	1.07
E57 [6], 12.3 nM	–	0.938
E57 [6], 37 nM	–	1.02
E57 [6], 111.1 nM	–	1.11
E57 [6], 333.3 nM	–	0.978
E57 [6], 1000 nM	–	1
E57 [6], 3000 nM	–	1.03
E57 [13], 4.1 nM	0.799	–
E57 [13], 12.3 nM	1.03	–
E57 [13], 37 nM	0.543	–
E57 [13], 111.1 nM	0.877	–
E57 [13], 333.3 nM	0.527	–
E57 [13], 1000 nM	0.924	–
E57 [13], 3000 nM	0.651	–
FT3469 [7], 4.1 nM	–	0.972
FT3469 [7], 12.3 nM	–	1.13
FT3469 [7], 37 nM	–	0.987
FT3469 [7], 111.1 nM	–	1.06
FT3469 [7], 333.3 nM	–	1.01
FT3469 [7], 1000 nM	–	1.01
FT3469 [7], 3000 nM	–	0.933
FT3469 [14], 4.1 nM	0.84	–
FT3469 [14], 12.3 nM	0.912	–
FT3469 [14], 37 nM	0.359	–
FT3469 [14], 111.1 nM	0.641	–
FT3469 [14], 333.3 nM	0.526	–
FT3469 [14], 1000 nM	0.625	–
FT3469 [14], 3000 nM	0.629	–
